Test results: patent US20250221953A1 (The University of Chicago, priority 2022, published 2025)

Each molecule was assayed on Jurkat T cells. Conditions: IL-2 production level in treated group compared to control group; 48 hours treatment, then anti-CD3/anti-CD28 12 hours.
Format: cell-based, human

Molecule	Relative changed percentage (%)
Oc1ccccc1 [PHENOL]	26.79%
CC(=O)CC(=O)[O-].[Li+] [LITHIUM ACETOACETATE/Acetoacetic acid, LITHIUM ACETOACETATE]	−21.48%
CHITIN	5.909%
O=P([O-])(O)O.[K+] [Monopotassium Phosphate]	28.67%
O=[Se](O)O [sodium selenite]	13.27%
CC[C@H](C)[C@@H]1NC(=O)[C@H](Cc2ccc(O)cc2)NC(=O)[C@@H](N)CSSC[C@@H](C(=O)N2CCC[C@H]2C(=O)N[C@@H](CC(C)C)C(=O)NCC(N)=O)NC(=O)[C@H](CC(N)=O)NC(=O)[C@H](CCC(N)=O)NC1=O [OXYTOCIN]	−6.991%
SULFUR/sulfide	24.14%
[Cl-].[Cl-].[Sr+2] [strontium chloride]	30.89%
CC(O)CC(=O)O (stereo not drawn) [3-HYDROXYBUTYRIC ACID]	5.082%
Collagen type II	8.555%
NC(=O)CC[C@H](N)C(=O)O [L-Glutamine]	25.52%
N[C@@H](CS)C(=O)O [L-Cysteine]	32.82%
NS(=O)(=O)c1cc(C(=O)O)c(NCc2ccco2)cc1Cl [FUROSEMIDE/LASIX, FUROSEMIDE, reference compound]	29.01%
COc1cc(/C=C/c2ccc(O)cc2)cc(OC)c1 [Pterostibene]	6.874%
Copper Gluconate	4.0672%
CC1=C[C@H](O)CC(C)(C)[C@H]1/C=C/C(C)=C/C=C/C(C)=C/C=C/C=C(C)/C=C/C=C(C)/C=C/C1=C(C)C[C@@H](O)CC1(C)C [Lutein]	31.92%
CCCCCCCC/C=C\CCCCCCCC(=O)O [Oleic acid]	77.53%
N[C@@H](Cc1cc(I)c(Oc2cc(I)c(O)c(I)c2)c(I)c1)C(=O)O [L-THYROXINE]	18.7243%
N[C@@H](CCC(=O)O)C(=O)O [L-Glutamic Acid]	2.2718%
O=C([O-])[O-].[Ca+2] [Calcium Carbonate]	−8.75%
CC1=C(/C=C/C(C)=C/C=C/C(C)=C/C=C/C=C(C)/C=C/C=C(C)/C=C/C2=C(C)C[C@@H](O)CC2(C)C)C(C)(C)CCC1 [BETA-CRYPTOXANTHIN]	24.88%

Molecule	Relative changed percentage (%)
C[C@@H]1O[C@@H](OC[C@H]2O[C@@H](Oc3c(-c4ccc(O)c(O)c4)oc4cc(O)cc(O)c4c3=O)[C@H](O)[C@@H](O)[C@@H]2O)[C@H](O)[C@H](O)[C@H]1O [Rutoside trihydrate]	14.9881%
[Cl][Sn][Cl] [TIN(II) CHLORIDE/Tin, TIN(II) CHLORIDE]	18.86%
Nc1ncnc2c1ncn2[C@@H]1O[C@H](COP(=O)([O-])OP(=O)([O-])OP(=O)(O)O)[C@@H](O)[C@H]1O.[Na+].[Na+] [Adenosine 5′-Triphosphate Disodium]	−38.28%
OC[C@H]1O[C@@](CO)(O[C@H]2O[C@H](CO)[C@@H](O)[C@H](O)[C@H]2O)[C@@H](O)[C@@H]1O [SUCROSE]	70.45%
[Cl-].[Cl-].[Zn+2] [ZINC CHLORIDE]	13.34%
O=c1cc[nH]c(=O)[nH]1 [URACIL]	2.457%
VASOACTIVE INTESTINAL PEPTIDE	1.0212%
NC[C@H](O)c1ccc(O)c(O)c1 [NOREPINEPHRINE]	40.2469%
CCO [ALCOHOL]	9.841%
C[C@]12CCC(=O)C=C1CC[C@@H]1[C@@H]2C(=O)C[C@@]2(C)[C@H]1CC[C@]2(O)C(=O)CO [CORTISONE]	−12.29%
COc1cc(CNC(=O)CCCC/C=C/C(C)C)ccc1O [Capsaicin]	1.661%
CC/C=C\C/C=C\C/C=C\CCCCCCCC(=O)O [Alpha-linolenic acid]	−24.53%
[Cl-].[Cl-].[Mg+2] [MAGNESIUM CHLORIDE ANHYDROUS]	31.9%
N[C@@H](CO)C(=O)O [L-Serine]	−22.11%
Eicosatrienoic Acid	15.36%
[Cl][Hg][Cl] [MERCURY(II) CHLORIDE]	−2.995%
Cl.N=C(N)N [GUANIDINE IIYDROCIILORIDE,, GUANIDINE IIYDROCIILORIDE]	41.83%
c1ncc2[nH]cnc2n1 [PURINE]	63.4263%
[Cl][Cd][Cl] [CADMIUM CIILORIDE/cadmium, CADMIUM CIILORIDE]	32.11%
CC(=O)N[C@H]1C(O)O[C@H](CO)[C@@H](O)[C@@H]1O (stereo partly drawn) [N-acetyl D-glucosamine]	−4.044%
MANGANESE SULFATE MONOHYDRATE [MANGANESE SULFATE MONOHYDRATE,]	−14.23%

Molecule	Relative changed percentage (%)
CSCC[C@H](N)C(=O)O [L-Methionine]	−11.84%
Chromium picolinate	−4.067%
CC(C)=CCC/C(C)=C/C=C/C(C)=C/C=C/C(C)=C/C=C/C=C(C)/C=C/C=C(C)/C=C/C=C(\C)CCC=C(C)C [Lycopene]	30%
(−)-EPINEPHRINE	53.12%
CN(CC(=O)O)C(=N)N [Creatine]	−40.99%
CC/C=C\C/C=C\C/C=C\C/C=C\C/C=C\C/C=C\CCC(=O)O [Docosahexaenoic Acid]	−29.89%
[Cl-].[K+] [POTASSIUM CHLORIDE/potassium, POTASSIUM CHLORIDE]	38.97%
IZING HORMONE RELEASING HORMONE HUMAN AC	−19.59%
CC(C)=O [ACETONE]	−31.07%
XANTHOPHYLL FROM MARIGOLD	7.531%
CCCCCC/C=C\CCCCCCCC(=O)O [Palmitoleic acid]	54.63%
C[C@]12CCC(=O)C=C1CC[C@@H]1[C@@H]2CC[C@@]2(C)[C@H]1CC[C@]2(O)C(=O)CO [11-DEOXYCORTISOL/Cortexolone, 11-DEOXYCORTISOL]	21.85%
c1cncnc1 [PYRIMIDINE]	4.127%
O=C(O)CCCCC1CCSS1 (racemic) [DL-6,8-Thioctic Acid]	−4.135%
C-PEPTIDE FRAGMENT 3-33, HUMAN [C-PEPTIDE FRAGMENT 3-33, HUMAN/C-peptide]	−11.7%
Cl.NCCc1ccc(O)c(O)c1 [3-HYDRO[…]/dopamine, 3-HYDRO[…]]	18.78%
O=P([O-])([O-])O.[K+].[K+] [Potassium Phosphate Dibasic]	177.4846%
D-(+)-MALTOSE MONOHYDRATE	−4.914%
O=C(O)CC(O)C(=O)O (stereo not drawn) [Malic acid]	38.52%

Same assay, conditions: IL-2 production level in treated group compared to control group; 48 hours treatment, then anti-CD3/anti-CD28 12 hours; hemicalcium salt

Molecule	Relative changed percentage (%)
D-Pantothenic Acid, hemicalcium salt	31.9171%

Same assay, conditions: IL-2 production level in treated group compared to control group; 48 hours treatment, then anti-CD3/anti-CD28 12 hours; listed as D-PANTOTHENIC ACID HEMICALCIUM, hemicalcium salt

Molecule	Relative changed percentage (%)
D-Pantothenic Acid, hemicalcium salt	−18.99%
